The text below walks through data of ChEMBL document CHEMBL1201862, “PubChem BioAssay data set” (2004).

Among the test systems are OVCAR-8; CCRF-CEM; RXF 393; NCI-H460; UO-31; HCT-15; SF-268; M14; SN12C; UACC-62; SK-OV-3; Hs-578T; HOP-62; HCC 2998; MDA-N; K562; SK-MEL-28; NCI-H23; SF-539; MCF7.
Common to all, as to assay: growth of human tumour cells (NCI), 48 h

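Results reflect a 48-hour exposure of cells in 96-well plates to compound at five concentrations. GI50 = concentration required for 50% inhibition of growth.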 The source made the active and inactive calls. Cut-off read from the data, not from the text of the source: active = GI50 up to about 1.1 µM and inactive = higher.

Regarding `COC(=O)c1c(C)cccc1CC1Cc2c(C)cccc2C1=O` (stereo unspecified), the GI50 in the assay on OVCAR-8 is 48.3 µM (inactive); in the assay on CCRF-CEM, 23 µM (inactive); in the assay with RXF 393, 27.9 µM (inactive); in the assay with NCI-H460, 35 µM (inactive); with UO-31, 16.9 µM (inactive); in the assay with HCT-15 it was 25.8 µM. In addition, the GI50 was 31 µM (inactive) in the assay on SF-268; 31.5 µM (inactive) in the assay with M14; 43.4 µM (inactive) in the assay on SN12C; 23.8 µM (inactive) with UACC-62; 20.2 µM (inactive) in the assay with SK-OV-3; 35.3 µM (inactive) with Hs-578T. Besides, the GI50 is 61.9 µM (inactive) with HOP-62; 27.9 µM (inactive) with HCC 2998; 30.3 µM (inactive) in the assay with MDA-N; 29.6 µM (inactive) in the assay on K562; 55.8 µM (inactive) in the assay with SK-MEL-28; 25.8 µM (inactive) with NCI-H23. In addition, the GI50 in the assay with SF-539 was 40.8 µM (inactive).

Regarding `CSc1nc(C)cc(Nc2ccc(O)c(CN3CCCCC3)c2)n1`, the GI50 is > 100 µM (inactive) in the assay with OVCAR-8; 67.6 µM (inactive) in the assay with RXF 393; 67.6 µM (inactive) with MCF7; 48.1 µM (inactive) with UO-31; 86.3 µM in the assay on HCT-15; > 100 µM (inactive) in the assay on SF-268. Further, the GI50 in the assay on M14 is 16.3 µM (inactive); in the assay on SN12C, 56.6 µM (inactive); with UACC-62, 60.8 µM (inactive); with SK-OV-3, > 100 µM (inactive); with Hs-578T, > 100 µM (inactive); in the assay with HOP-62, > 100 µM (inactive). Also, the GI50 was 28 µM (inactive) in the assay on MDA-N; 30.6 µM (inactive) in the assay on K562; 28.8 µM (inactive) in the assay on SK-MEL-28; 77.4 µM (inactive) with NCI-H23; 43.3 µM (inactive) in the assay on SF-539.

In the case of `Nc1nc(N)c2nc(CNc3ccc(C(=O)NC(CCNC(=O)c4ccccc4C(=O)O)C(=O)O)cc3)cnc2n1` (stereo unspecified), the GI50 with OVCAR-8 is 0.01 µM (active); in the assay on CCRF-CEM it was 0.01 µM (active); in the assay with NCI-H460, 0.01 µM (active); in the assay with MCF7, 0.01 µM (active); in the assay with UO-31, 0.00802 µM (active); in the assay on HCT-15, 0.01 µM. Besides, the GI50 is 0.0101 µM (active) in the assay with SF-268; 0.01 µM (active) with M14; 0.01 µM (active) in the assay on SN12C; < 0.0126 µM (active) in the assay with UACC-62; > 100 µM (inactive) in the assay on SK-OV-3; > 100 µM (inactive) with Hs-578T. The GI50 with HOP-62 is < 0.0205 µM (active); in the assay with MDA-N it was 0.00785 µM (active); with K562, 0.01 µM (active); in the assay on SK-MEL-28 it was 4.14 µM (inactive); in the assay with NCI-H23, < 0.0226 µM (active); with SF-539 it was < 0.0256 µM (active).

For the molecule `Cc1cc(CC(O)(C(F)(F)F)C(F)(F)F)cc(CC(O)(C(F)(F)F)C(F)(F)F)n1`, the GI50 with OVCAR-8 is 3.48 µM (inactive); in the assay with CCRF-CEM it was 3.21 µM (inactive); with RXF 393, 4.24 µM (inactive); in the assay with NCI-H460, 2.04 µM (inactive); in the assay with UO-31, 2.05 µM (inactive); with HCT-15 it was 4.08 µM. Moreover, the GI50 is 2.7 µM (inactive) with SF-268; 3.71 µM (inactive) in the assay on M14; 3.1 µM (inactive) in the assay with SN12C; 3.57 µM (inactive) with UACC-62; 2.67 µM (inactive) in the assay on Hs-578T; 3.33 µM (inactive) in the assay on HOP-62. For the same molecule, the GI50 is 4.23 µM (inactive) in the assay with HCC 2998; 3.88 µM (inactive) in the assay on MDA-N; 4.28 µM (inactive) in the assay with K562; 3.03 µM (inactive) in the assay with SK-MEL-28; 2.51 µM (inactive) in the assay with NCI-H23; 3.43 µM (inactive) in the assay with SF-539.

As for `COc1ccc(-c2nc(-c3ccc(OC)cc3)n(-c3ccccc3)n2)cc1`, the GI50 with OVCAR-8 was > 100 µM (inactive); with CCRF-CEM, > 100 µM (inactive); in the assay on RXF 393, 32.8 µM (inactive); in the assay with NCI-H460, > 100 µM (inactive); with MCF7 it was > 100 µM (inactive); in the assay on UO-31, 21.6 µM (inactive). In addition, the GI50 in the assay on HCT-15 was > 100 µM; in the assay on SF-268, > 100 µM (inactive); in the assay with M14 it was 68.7 µM (inactive); in the assay with SN12C it was > 100 µM (inactive); with UACC-62 it was 86.5 µM (inactive); in the assay with SK-OV-3, > 100 µM (inactive). The GI50 was > 100 µM (inactive) with Hs-578T; > 100 µM (inactive) in the assay on HOP-62; > 100 µM (inactive) in the assay on MDA-N; > 100 µM (inactive) in the assay with SK-MEL-28; 39.4 µM (inactive) in the assay with NCI-H23; > 100 µM (inactive) in the assay on SF-539.

On to `CC(=O)Oc1ccccc1-c1cc2ccccc2oc1=O`, for which the GI50 was > 100 µM (inactive) in the assay on OVCAR-8; > 100 µM (inactive) with CCRF-CEM; > 100 µM (inactive) with NCI-H460; > 100 µM (inactive) with MCF7; 46.8 µM (inactive) in the assay with UO-31; > 100 µM in the assay on HCT-15. For the same molecule, the GI50 in the assay with SF-268, in the assay on M14, with SN12C, in the assay with Hs-578T, with HOP-62 and in the assay on HCC 2998 was > 100 µM (inactive) in each case. Besides, the GI50 in the assay on MDA-N was > 100 µM (inactive); with K562, > 100 µM (inactive); in the assay on SK-MEL-28 it was > 100 µM (inactive); in the assay with NCI-H23, 83.8 µM (inactive); in the assay on SF-539 it was > 100 µM (inactive).

Take `Cn1ncc2[nH]cnc2c1=S`: the GI50 is > 100 µM (inactive) in the assay with OVCAR-8; 19.8 µM (inactive) with CCRF-CEM; > 100 µM (inactive) with RXF 393; > 100 µM (inactive) with NCI-H460; 79.3 µM (inactive) in the assay on MCF7; > 100 µM (inactive) in the assay with UO-31. Further, the GI50 is > 100 µM in the assay on HCT-15; > 100 µM (inactive) in the assay with SF-268; > 100 µM (inactive) in the assay on M14; > 100 µM (inactive) in the assay on SN12C; > 100 µM (inactive) with UACC-62; > 100 µM (inactive) with Hs-578T. The GI50 in the assay with HOP-62 was > 100 µM (inactive); with MDA-N, > 100 µM (inactive); in the assay on K562, 50.7 µM (inactive); in the assay on SK-MEL-28 it was > 100 µM (inactive); in the assay with NCI-H23 it was > 100 µM (inactive); in the assay with SF-539, > 100 µM (inactive).

Regarding `CC(=O)/C=C1\Nc2ccc([N+](=O)[O-])cc2N\C1=C/C(C)=O`, the GI50 with OVCAR-8 is 33.5 µM (inactive); with CCRF-CEM it was 17.2 µM (inactive); with RXF 393, 64.3 µM (inactive); in the assay on NCI-H460, 21.5 µM (inactive); with UO-31 it was > 100 µM (inactive); in the assay with HCT-15, 33.4 µM. Also, the GI50 is 47.8 µM (inactive) in the assay with SF-268; > 100 µM (inactive) in the assay with M14; 28.7 µM (inactive) with SN12C; 26.7 µM (inactive) in the assay on UACC-62; 90.8 µM (inactive) with SK-OV-3; 26.7 µM (inactive) with Hs-578T. For the same molecule, the GI50 in the assay on HOP-62 was 44.9 µM (inactive); in the assay on MDA-N, 37.3 µM (inactive); in the assay on K562, 50.8 µM (inactive); in the assay with SK-MEL-28, 51.1 µM (inactive); in the assay on NCI-H23, 25.1 µM (inactive); in the assay on SF-539, 46.6 µM (inactive).

With `C/C1=C\[C@H](C)C[C@H](C)OC(=O)C[C@H](c2ccc(O)cc2)NC(=O)[C@H](Cc2ccc(O)c(I)c2)N(C)C(=O)[C@H](C)NC(=O)[C@@H](C)C1`, the GI50 was 0.0137 µM (active) in the assay with OVCAR-8; 0.00497 µM (active) in the assay with CCRF-CEM; 0.019 µM (active) in the assay on MCF7; 0.0535 µM (active) with UO-31; 0.234 µM in the assay with HCT-15; 0.011 µM (active) with SF-268. For the same molecule, the GI50 was 0.0405 µM (active) in the assay with M14; 0.239 µM (active) in the assay on SN12C; 0.0428 µM (active) with UACC-62; 0.054 µM (active) in the assay with SK-OV-3; 0.0564 µM (active) with Hs-578T; 0.0252 µM (active) with HOP-62. In addition, the GI50 in the assay on MDA-N was 0.0412 µM (active); in the assay on K562 it was 1.31 µM (inactive); with SK-MEL-28 it was 0.0112 µM (active); with NCI-H23, 2.79 µM (inactive).

Turning to `C=C1CC(Cn2cc(Br)c(=O)[nH]c2=O)(c2ccc(-c3ccccc3)cc2)OC1=O` (stereo unspecified), the GI50 with OVCAR-8 is 0.466 µM (active); with CCRF-CEM it was 0.165 µM (active); in the assay with NCI-H460, 6.25 µM (inactive); in the assay on MCF7 it was 0.427 µM (active); in the assay on UO-31 it was 2.03 µM (inactive); in the assay on HCT-15 it was 1.61 µM. Also, the GI50 with SF-268 is 2.02 µM (inactive); in the assay with M14, 1.43 µM (inactive); in the assay with SN12C, 1.9 µM (inactive); in the assay with UACC-62 it was 1.12 µM (active); in the assay on SK-OV-3 it was 4.31 µM (inactive); in the assay with Hs-578T, 2.74 µM (inactive). In addition, the GI50 with HOP-62 was 4.23 µM (inactive); in the assay on HCC 2998, 1.66 µM (inactive); in the assay on MDA-N, 0.83 µM (active); with K562, 0.2 µM (active); in the assay on SK-MEL-28 it was 0.221 µM (active); in the assay with NCI-H23 it was 0.993 µM (active). Besides, the GI50 in the assay with SF-539 was 1.37 µM (inactive).

Take `COc1cc2oc3c(c(=O)c2c(O)c1/C=C/C(C)C)C(C=C(C)C)Oc1cc(O)ccc1-3` (stereo unspecified): the GI50 is 16.2 µM (inactive) with OVCAR-8; 5.53 µM (inactive) in the assay with CCRF-CEM; 14.5 µM (inactive) in the assay on NCI-H460; 14.4 µM (inactive) with MCF7; 12.1 µM (inactive) with UO-31; 15.8 µM in the assay with HCT-15. In addition, the GI50 in the assay with SF-268 was 18.7 µM (inactive); with M14, 13.3 µM (inactive); in the assay on SN12C, 16.1 µM (inactive); in the assay on UACC-62 it was 17.2 µM (inactive); in the assay on SK-OV-3, 16.6 µM (inactive); in the assay with Hs-578T it was 19 µM (inactive). The GI50 with HCC 2998 is 12.1 µM (inactive); in the assay with MDA-N it was 16.9 µM (inactive); in the assay on K562, 7.6 µM (inactive); with SK-MEL-28, 16.5 µM (inactive); in the assay with NCI-H23, 15.7 µM (inactive); with SF-539, 17.5 µM (inactive).
